{"source": "patent US9056835B2", "about": "“LPA2 receptor-specific benzoic acid derivatives” (University of Tennessee Research Foundation, priority 2012, dated 2015)", "key": {"LPA2, TRIP6 and NHERF2": {"molecular_target": "T1, LPA2, TRIP6 and NHERF2 (Homo sapiens, UniProt Q9HBW0)", "T1 construct": "expressed in transfected cells; host or cells: HEK293T, transient co-transfection", "T1 sequence (Q9HBW0 whole entry)": "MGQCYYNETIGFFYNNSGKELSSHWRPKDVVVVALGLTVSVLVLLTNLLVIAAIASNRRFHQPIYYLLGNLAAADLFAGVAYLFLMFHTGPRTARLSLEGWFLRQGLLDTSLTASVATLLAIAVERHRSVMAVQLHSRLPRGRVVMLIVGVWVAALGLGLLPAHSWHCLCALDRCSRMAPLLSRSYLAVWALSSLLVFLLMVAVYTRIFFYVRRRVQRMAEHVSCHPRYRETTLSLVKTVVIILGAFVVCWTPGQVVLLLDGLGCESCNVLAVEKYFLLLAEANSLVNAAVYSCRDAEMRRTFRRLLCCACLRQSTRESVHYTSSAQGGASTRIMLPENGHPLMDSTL", "T1 sequence (Q15599 whole entry partner)": "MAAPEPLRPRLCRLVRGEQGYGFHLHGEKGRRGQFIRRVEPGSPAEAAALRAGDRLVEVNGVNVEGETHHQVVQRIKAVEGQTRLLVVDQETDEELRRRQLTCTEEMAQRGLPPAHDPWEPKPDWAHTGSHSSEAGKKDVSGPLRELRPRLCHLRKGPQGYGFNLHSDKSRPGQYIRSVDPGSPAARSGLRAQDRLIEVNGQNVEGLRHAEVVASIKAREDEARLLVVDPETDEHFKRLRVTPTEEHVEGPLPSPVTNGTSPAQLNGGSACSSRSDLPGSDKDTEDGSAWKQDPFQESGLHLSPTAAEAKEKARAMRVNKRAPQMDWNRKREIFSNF", "T1 sequence (Q15654 whole entry partner)": "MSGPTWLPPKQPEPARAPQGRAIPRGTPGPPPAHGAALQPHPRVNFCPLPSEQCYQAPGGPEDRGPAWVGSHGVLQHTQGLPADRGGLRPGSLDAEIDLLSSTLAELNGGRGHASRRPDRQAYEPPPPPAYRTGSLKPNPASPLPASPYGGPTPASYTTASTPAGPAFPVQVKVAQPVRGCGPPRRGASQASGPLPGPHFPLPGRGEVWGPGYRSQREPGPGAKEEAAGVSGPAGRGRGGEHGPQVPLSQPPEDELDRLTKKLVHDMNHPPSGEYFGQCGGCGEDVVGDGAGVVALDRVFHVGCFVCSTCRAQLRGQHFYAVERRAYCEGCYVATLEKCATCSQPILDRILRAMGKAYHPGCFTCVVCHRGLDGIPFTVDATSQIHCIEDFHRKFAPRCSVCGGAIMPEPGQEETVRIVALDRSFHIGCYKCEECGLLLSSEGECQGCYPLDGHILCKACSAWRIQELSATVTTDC", "assay": "Ligand-induced macromolecular complex formation with LPA2", "type": "cell-based", "settings": "HEK293T, FLAG-LPA2 and EGFP-NHERF2, 10 μM, 10 min", "text": "LPA2 forms a ternary complex with TRIP6 and NHERF2. This complex is assembled via multiple protein-protein interactions that include: binding of NHERF2 to the C-terminal PSD95/Dlg/ZO-1 domain (PDZ)-binding motif of LPA2, the binding of TRIP6 to the Zinc-finger-like CxxC motif of LPA2, and binding of NHERF2 to the PDZ-binding motif of TRIP6. To examine ligand-induced macromolecular complex formation, HEK293T cells were transfected with FLAG-LPA2 and enhanced green fluorescent protein (EGFP)-NHERF2, and the cells were exposed to 10 μM GRI977143 for 10 min as described in detail in our previous publication (E et al., The LPA2 receptor-mediated supramolecular complex formation regulates its antiapoptotic effect. J Biol Chem (2009) 284: 14558-14571). The complex was pulled down using anti-FLAG M2 monoclonal antibody-conjugated agarose beads (Sigma-Aldrich) and processed for western blotting using anti-EGFP (gift from Dr. A. P. Naren; UTHSC, TN), anti-FLAG (Sigma-Aldrich), and anti-TRIP6 (Bethyl Laboratories; Montgomery, Tex.) antibodies."}, "PARP-1": {"test_system": "PARP-1", "assay": "Immunoblot, PARP-1 cleavage", "type": "cell-based, mouse", "settings": "10 μM", "procedure": "(§1) Experiments were performed on vector- and LPA2-transduced MEF cells. To measure caspase 3, 7, 8, or 9 activity and DNA fragmentation, cells were plated in 48-well plates (2×10^4 cells/well). To detect PARP-1 cleavage and Bax translocation, 1.5×10^6 cells were plated in 10-cm dishes and cultured overnight in full growth medium. The next morning, the growth medium was replaced by serum-starvation medium and cells were pretreated for 1 h with LPA (1-10 μM), OTP (1-10 μM), GRI977143 (1-10 μM), or vehicle. Caspase activity, DNA fragmentation, PARP-1 cleavage, and Bax translocation were measured 5 h after incubation with 1.7 μM Adriamycin or 24 h after serum withdrawal.\nTo detect ligand-induced ERK1/2 activation, vector- and LPA2-transfected MEF cells were serum starved 3 h before exposure to 1 μM LPA, 1 μM OTP, 10 μM GRI977143, or vehicle for 10 min. For ERK1/2 activation and PARP-1 cleavage measurements, cells were harvested in 1× Laemmli sample buffer and separated using 12% Laemmli SDS-polyacrylamide gels. To assess Bax translocation, cell lysates were separated into cytosolic, mitochondrial, and nuclear fractions using the Cell Fractionation Kit-Standard (MitoSciences; Eugene, Oreg.). […] Samples were boiled for 5 min and loaded onto 12% SDS-polyacrylamide gels. Western blotting was carried out as previously described (Valentine et al., 2010). […]"}, "Bax": {"test_system": "Bax", "assay": "Immunoblot, Bax translocation", "type": "cell-based, mouse", "settings": "10 μM", "procedure": "as §1\nTo detect ligand-induced ERK1/2 activation, vector- and LPA2-transfected MEF cells were serum starved 3 h before exposure to 1 μM LPA, 1 μM OTP, 10 μM GRI977143, or vehicle for 10 min. For ERK1/2 activation and PARP-1 cleavage measurements, cells were harvested in 1× Laemmli sample buffer and separated using 12% Laemmli SDS-polyacrylamide gels. To assess Bax translocation, cell lysates were separated into cytosolic, mitochondrial, and nuclear fractions using the Cell Fractionation Kit-Standard (MitoSciences; Eugene, Oreg.). […] Samples were boiled for 5 min and loaded onto 12% SDS-polyacrylamide gels. Western blotting was carried out as previously described (Valentine et al., 2010). Primary antibodies against pERK1/2, PARP-1, Bax (Cell Signaling Technology; Beverly, Mass.), actin (Sigma-Aldrich), and anti-rabbit-horseradish peroxidase secondary antibodies (Promega) were used according to the instructions of the manufacturer."}}, "data": [{"compound": "O=C(O)c1ccccc1SCCCN1C(=O)c2cccc3cccc(c23)C1=O", "note": "[GRI977143]", "values": [{"measurement": "assembly of macromolecular complex LPA2-TRIP6-NHERF2", "setting": "LPA2, TRIP6 and NHERF2", "result": "elicited the assembly of the signaling complex"}, {"measurement": "PARP-1 cleavage", "setting": "PARP-1; LPA2-transduced MEF, Adriamycin or serum withdrawal", "result": "reduced PARP-1 cleavage"}, {"measurement": "PARP-1 cleavage", "setting": "PARP-1; vector-transduced cells", "result": "not observed"}, {"measurement": "Bax translocation to the mitochondria", "setting": "Bax; LPA2-transduced MEF, Adriamycin", "result": "maintained a high level of Bax in the cytoplasm"}, {"measurement": "cytosolic Bax level", "setting": "Bax; serum withdrawal model", "result": "did not detect any change in cytosolic Bax level"}, {"measurement": "Bax translocation", "setting": "Bax; vector-transduced MEF, Adriamycin", "result": "failed to reduce Bax translocation"}]}]}
